Test results from US20150132342A1, “NOVEL IMMUNE ACTIVATORS: SUBSTITUTE 4-AMINOQUINAZOLINES” (The Regents of the University of California, priority 2013, published 2015).

Assays:
Format in all cases: cell-based
HepG2 cells = test: MTT assay in HepG2 cells; details: compounds tested at 10 μM; normalized with OD570-650 of vehicle treatment; in % (unit assumed)
human PBMC = test: IL-8 release in human PBMC (ELISA); details: Homo sapiens, PBMC, 18 h; 0.5 μM; IL-8 release, normalized to LPS positive control=100
Experimental: In vitro activities in human peripheral blood mononuclear cells (PBMC). Human PBMC were isolated from buffy coats obtained from the San Diego Blood Bank (San Diego, Calif.) as described previously.^5,6 PBMC (1×10^6/mL) were incubated with various compounds in complete RPMI (Omega Scientific) for 18 h at 37° C., 5% CO2 and culture supernatants were collected. The levels of IL-8 in the supernatants were determined by ELISA (BD Biosciences).

TLR4/MD-2/CD14 = target: T1, TLR4/MD-2/CD14 (Homo sapiens, UniProt O00206+Q9Y6Y9); test: hTLR4 HEK Blue reporter cells, NF-κB SEAP secretion (QuantiBlue OD630); details: for hTLR4 0.5 μM: Quantiblue OD630 of hTLR4 HEK Blue cells, normalized to LPS positive control=100; for Activity relative to compound 1a (SAR in words): TLR4 reporter cells and hPBMC
T1 construct: host or cells: HEK293 (HEK Blue hTLR4)
T1 sequence (O00206 24-839): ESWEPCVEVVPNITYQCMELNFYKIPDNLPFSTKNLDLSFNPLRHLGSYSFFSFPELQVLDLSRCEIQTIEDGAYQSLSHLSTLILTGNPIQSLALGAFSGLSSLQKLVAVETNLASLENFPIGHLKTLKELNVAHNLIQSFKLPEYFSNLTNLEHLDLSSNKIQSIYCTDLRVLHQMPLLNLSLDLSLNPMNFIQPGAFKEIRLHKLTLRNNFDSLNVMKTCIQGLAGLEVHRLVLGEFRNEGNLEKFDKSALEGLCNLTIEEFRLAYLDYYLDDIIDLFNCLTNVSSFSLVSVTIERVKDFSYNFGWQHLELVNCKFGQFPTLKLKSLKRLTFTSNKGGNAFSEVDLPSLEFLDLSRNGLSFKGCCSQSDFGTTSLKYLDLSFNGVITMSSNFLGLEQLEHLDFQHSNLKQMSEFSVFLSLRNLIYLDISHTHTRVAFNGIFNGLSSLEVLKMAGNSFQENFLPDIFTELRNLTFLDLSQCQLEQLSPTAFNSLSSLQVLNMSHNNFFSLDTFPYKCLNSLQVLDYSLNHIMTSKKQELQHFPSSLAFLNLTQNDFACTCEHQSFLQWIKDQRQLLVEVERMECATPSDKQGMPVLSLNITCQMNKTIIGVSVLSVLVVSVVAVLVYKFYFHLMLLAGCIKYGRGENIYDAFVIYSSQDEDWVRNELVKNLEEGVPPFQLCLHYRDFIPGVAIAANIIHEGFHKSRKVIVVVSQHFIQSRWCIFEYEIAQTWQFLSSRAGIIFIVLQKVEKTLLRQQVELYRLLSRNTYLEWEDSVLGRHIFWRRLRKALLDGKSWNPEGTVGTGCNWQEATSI
T1 sequence (Q9Y6Y9 19-160): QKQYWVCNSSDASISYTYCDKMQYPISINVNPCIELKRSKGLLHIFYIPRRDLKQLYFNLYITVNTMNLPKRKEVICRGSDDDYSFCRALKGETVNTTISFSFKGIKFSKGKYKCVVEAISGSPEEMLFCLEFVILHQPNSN
Experimental: In vitro assays using TLR reporter cell lines. Murine or humanTLR4 HEK Blue™ cells (Invivogen, 2.5×10^4 cells per well of a 96 well plate), or NF-κB/SEAPorter™ HEK 293 cells (Imgenex, San Diego, Calif.) for human TLR2, TLR3, TLR5, TLR7, TLR8, or TLR9 (5×10^4 cells per well of 96 well plate) were incubated with graded doses of the test compound. The culture supernatants were harvested after a 20-24 h incubation period. Secreted alkaline phosphatase (SEAP) activity in the supernatants was determined by a colorimetric assay, using either the SEAPorter Assay Kit (Imgenex, San Diego, Calif.), with absorbance read at 405 nm, or QuantiBlue (Invivogen), with absorbance read at 630 nm. In some experiments, graded concentrations of LPS-RS ([…], Invivogen) were used to test TLR4-specific binding of the hit compound.

human TLR4/MD-2 = target: T2, human TLR4/MD-2 (Homo sapiens, UniProt O00206+Q9Y6Y9); test: BMDM from transgenic mice expressing human TLR4/MD-2 (IL-6, IP-10); details: BMDM from human TLR4/MD-2 transgenic mice deficient for murine TLR4/MD-2
T2 construct: expressed in transfected cells; host or cells: bone marrow derived macrophages of human TLR4 transgenic mice on a murine TLR4/MD-2 null C57BL/6 background (gift of Dr. L. Hajjar)
T2 sequence (O00206 24-839): as the sequence (O00206 24-839) above
T2 sequence (Q9Y6Y9 19-160): as the sequence (Q9Y6Y9 19-160) above
Excerpt: Animals. Seven to 9 week-old C57BL/6 (wild type, WT) and Cd14^−/− (C57BL/6 background) mice were purchased from the Jackson Laboratories (Bar Harbor, Mass.). Tlr4^−/− mice (C57BL/6 background) were a gift from Dr. Shizuo Akira (Osaka University, Japan) and were backcrossed for 10 generations onto the C57BL/6 background at University of California, San Diego (UCSD). MD-2^−/− mice (C57BL/6 background) were originally generated by Dr. K. Miyake (University of Tokyo, Tokyo, Japan) and were kindly provided by Dr. L. Hajjar (University of Washington, Seattle, Wash.). Human TLR4 transgenic mice on murine TLR4/MD-2 null C57BL/6 background were kindly provided by Dr. L. Hajjar.^3 All animal experiments were approved by the UCSD Institutional Animal Care and Use Committee.
In vitro cytokine induction in bone marrow derived dendritic cells (BMDC) and macrophages (BMDM). […] The levels of IL-6 or IP-10 in the culture supernatants were determined by ELISA (BD Biosciences, La Jolla, Calif.).^5 Finally, all levels of cytokine release were normalized to those of LPSstimulation within each experiment, set at 100.

Structure (SMILES) | HepG2 MT (HepG2 cells) | IL-8 release (% of LPS control) at 0.5 µM (human PBMC) [%] | hTLR4 0.5 μM (TLR4/MD-2/CD14) | Activity relative to compound 1a (SAR in words) (TLR4/MD-2/CD14) | Activation of transgenic human TLR4/MD-2 complex relative to mouse TLR4/MD-2 (human TLR4/MD-2)
CC(C)CCOC(=O)c1nc(Nc2cc(Oc3ccccc3)cc([N+](=O)[O-])c2)c2ccccc2n1 [Compound 12a, Isopentyl 4-((3-nitro-5-phenoxyphenyl)amino)quinazoline-2-carboxylate] | 63.4 | 2.2 | 8.4 | – | –
CC(C)OC(=O)c1nc(Nc2cc(Oc3ccccc3Br)cc([N+](=O)[O-])c2)c2ccccc2n1 [Compound 13g, Isopropyl 4-((3-(2-bromophenoxy)-5-nitrophenyl)amino)quinazoline-2-carboxylate] | 106.5 | 19.2 | 67.8 | – | –
CCOC(=O)c1nc(Nc2cc(Oc3cccc(C)c3)cc([N+](=O)[O-])c2)c2ccccc2n1 [Compound 1c, Ethyl 4-((3-nitro-5-(m-tolyloxy)phenyl)amino)quinazoline-2-carboxylate] | 109.9 | 5.8 | 14.5 | – | –
CCOC(=O)c1nc(Nc2cc(Oc3c(C)cccc3C)cc([N+](=O)[O-])c2)c2ccccc2n1 [Compound 1j, Ethyl 4-((3-(2,6-dimethylphenoxy)-5-nitrophenyl)amino)quinazoline-2-carboxylate] | 106.3 | 0 | 0.6 | – | –
CCOC(=O)c1nc(Nc2cc(Oc3ccc(C)cc3)cc([N+](=O)[O-])c2)c2ccccc2n1 [Compound 1d, Ethyl 4-((3-nitro-5-(p-tolyloxy)phenyl)amino)quinazoline-2-carboxylate] | 108.8 | 0.4 | 0.5 | – | –
CCOC(=O)c1nc(Nc2cc(Oc3ccccc3CC)cc([N+](=O)[O-])c2)c2ccccc2n1 [Compound 1e, Ethyl 4-((3-(2-ethylphenoxy)-5-nitrophenyl)amino)quinazoline-2-carboxylate] | 98.9 | 3.2 | 4.2 | substantial loss of activity | –
CCOC(=O)c1nc(Nc2cc(Oc3ccc4ccccc4c3)cc([N+](=O)[O-])c2)c2ccccc2n1 [Compound 1k, Ethyl 4-((3-(naphthalen-2-yloxy)-5-nitrophenyl)amino)quinazoline-2-carboxylate] | 111.4 | 0 | 0.8 | loss of activity | –
CCNC(=O)c1nc(Nc2cc(Oc3ccccc3)cc([N+](=O)[O-])c2)c2ccccc2n1 [Compound 8a, N-Ethyl-4-((3-nitro-5-phenoxyphenyl)amino)quinazoline-2-carboxamide] | 107.4 | 1.5 | 2.2 | – | –
CCOC(=O)c1nc(Nc2cc(Oc3ccccc3Br)cc([N+](=O)[O-])c2)c2ccccc2n1 [Compound 1g, Ethyl 4-((3-(2-bromophenoxy)-5-nitrophenyl)amino)quinazoline-2-carboxylate] | 90.8 | 35.6 | 79.0 | enhanced | to a greater extent
COC(=O)c1nc(Nc2cc(Oc3ccccc3)cc([N+](=O)[O-])c2)c2ccccc2n1 [Compound 10a, Methyl 4-((3-nitro-5-phenoxyphenyl)amino)quinazoline-2-carboxylate] | 116.4 | 0.2 | 0.4 | – | –
Nc1cc(Nc2nc(C(=O)O)nc3ccccc23)cc(Oc2ccccc2)c1 [Compound 6a, 4-((3-Amino-5-phenoxyphenyl)amino)quinazoline-2-carboxylic acid] | 105.0 | 0.3 | 1.1 | – | –
O=C(O)c1nc(Nc2cc(Oc3ccccc3)cc([N+](=O)[O-])c2)c2ccccc2n1 [Compound 7a, 4-((3-Nitro-5-phenoxyphenyl)amino)quinazoline-2-carboxylic acid] | 84.5 | 0.5 | 0.6 | – | –
NC(=O)c1nc(Nc2cc(Oc3ccccc3)cc([N+](=O)[O-])c2)c2ccccc2n1 [Compound 9a, 4-((3-nitro-5-phenoxyphenyl)amino)quinazoline-2-carboxamide] | 78.4 | 0.3 | 0.0 | – | –
CCOC(=O)c1nc(Nc2cc(Oc3ccccc3C)cc([N+](=O)[O-])c2)c2ccccc2n1 [Compound 1b, Ethyl 4-((3-nitro-5-(o-tolyloxy)phenyl)amino)quinazoline-2-carboxylate] | 96.7 | 20.5 | 45.5 | enhanced | –
O=C(O)c1nc(Nc2cc(Oc3ccccc3Br)cc([N+](=O)[O-])c2)c2ccccc2n1 [Compound 7g, 4-((3-(2-Bromophenoxy)-5-nitrophenyl)amino)quinazoline-2-carboxylic acid] | 96.3 | 0 | 1.6 | – | –
CCOC(=O)c1nc(Nc2cc(N)cc(Oc3ccccc3)c2)c2ccccc2n1 [Compound 5a, Ethyl 4-((3-amino-5-phenoxyphenyl)amino)quinazoline-2-carboxylate] | 106.1 | 0.3 | 0.6 | complete loss of activity | –
CC(C)OC(=O)c1nc(Nc2cc(Oc3ccccc3)cc([N+](=O)[O-])c2)c2ccccc2n1 [Compound 11a, Isopropyl 4-((3-nitro-5-phenoxyphenyl)amino)quinazoline-2-carboxylate] | 65.6 | 2.1 | 7.4 | – | –
CCOC(=O)c1nc(Nc2cc(Oc3ccccc3C(F)(F)F)cc([N+](=O)[O-])c2)c2ccccc2n1 [Compound 1i, Ethyl 4-((3-nitro-5-(2-(trifluoromethyl)phenoxy)phenyl)amino)quinazoline-2-carboxylate] | 67.1 | 26.5 | 58.7 | – | –
CCOC(=O)c1nc(Nc2cc(Oc3ccccc3I)cc([N+](=O)[O-])c2)c2ccccc2n1 [Compound 1h, Ethyl 4-((3-(2-iodophenoxy)-5-nitrophenyl)amino)quinazoline-2-carboxylate] | 93.8 | 34.2 | 65.5 | enhanced | –
CCOC(=O)c1nc(Nc2cc(Oc3ccccc3Cl)cc([N+](=O)[O-])c2)c2ccccc2n1 [Compound 1f, Ethyl 4-((3-(2-chlorophenoxy)-5-nitrophenyl)amino)quinazoline-2-carboxylate] | 107.4 | 27.3 | 73.9 | enhanced | –
